System: mice
Test: Analgesic effect of intragastric administration on mice measured with hot-plate test
Assay type: in vivo, ICR mice
Conditions: x ± s, n = 10; for pain threshold before administration / pain-threshold before administration: baseline; for pain-threshold after administration / pain-threshold before administration: time course
Description: The analgesic effect with a single dose of the compounds represented by Formula I is preliminarily screened at single time point through hot-plate test, with fortanodyn and aspirin as positive controls. All of the compounds are administered intragastrically.
On the basis of preliminary screening results, several representative compounds were selected to test their analgesic duration, and a part of the results is listed in Table 4. The results illustrate that the analgesic duration of most compounds is longer than 2 hours after a single oral administration, and that some of the compounds have analgesic duration lasting longer than 4 hours.
Furthermore, the dose-effect relationship on an analgesic model of two compounds was tested and the results are shown in Table 5.
Analgesic effect of intragastric administration on mice measured with hot-plate test
Female ICR mice, weight 20+2 g, were purchased from Department of Laboratory Animal Science, Beijing University, animal license number: SCXK 2002-0001.
A) Samples: samples were prepared as mixtures with 0.9% NaCl solution for intragastric administration to mice.
B) Fortanodyn: 30 mg/pill (TianJin LiSheng Pharmaceutical Co. Ltd, lot number: 0201001), 1.5 mg/mL solution was prepared with 0.9% NaCl solution for intragastric administration to mice.
1) Hot-plate test on mice was employed. A thermostatic water bath was adjusted at 55±0.5° C., the bottom of metal plates contacted water surface and used as stimuli after heating. The time span(s) from the point when the mouse was placed onto the hot-plate to the time when the mouse started to lick its metapedes was determined as its pain threshold, which was recorded by stopwatch. Female mice with a weight of 20±2 g were used. The pain threshold of every mouse was measured twice before administration, and the qualified mice are the ones whose average pain threshold was less than 30 seconds.
The qualified mice were randomly grouped with 10 mice in each group. The pain threshold before administration was determined as the basic pain threshold. To the medication administration team, drugs of different dose were given through intragastric administration, whereas to the control group, 0.9% NaCl solution was given. The administration volume was 0.2 mL for every 10 g body weight. The pain threshold of each group was measured at 1 hour after administration.
After administration the pain threshold of each group at different time was measured. The experimental data was statistically treated with t-test using SPSS10 statistics software.

[1] = Table 3 screening, 0.6 mg/kg intragastric, 1 hour
[2] = Table 3 screening, group dosed 0.6 mg/kg intragastric

Compound	pain threshold after administration [1]	pain threshold before administration [2]	further results
C/C=C1\[C@H]2C=C(C)C[C@]1(/N=C/C=C/c1cccc(OC)c1)c1ccc(=O)[nH]c1C2 [Example 19, (5R,9R,11E)-5-(3-(3-methoxylphenyl)prop-2-en-1-ylideneamino)-11-ethylidene-5,6,9,10-tetrahydro-7-methyl-5,9-methanocycloocta[b]pyridin-2(1H)-one]	18.6 ± 3.44 s	12.0 ± 2.53 s	
C/C=C1\[C@H]2C=C(C)C[C@]1(N=CC(Br)=Cc1ccccc1)c1ccc(=O)[nH]c1C2 [Example 10, (5R,9R,11E)-5-(2-bromo-3-phenylprop-2-en-1-ylideneamino)-11-ethylidene-5,6,9,10-tetrahydro-7-methyl-5,9-methanocycloocta[b]pyridin-2(1H)-one]	21.0 ± 3.16 s	11.8 ± 3.54 s	
C/C=C1\C2C=C(C)CC1(/N=C/C=C/c1c3ccccc3cc3ccccc13)c1ccc(=O)[nH]c1C2 [Example 26, (5R,9R,11E)-5-(3-(anthracen-9-yl)prop-2-en-1-ylideneamino)-11-ethylidene-5,6,9,10-1,7-dimethyl-5,9-methanocycloocta[b]pyridin-2(1H)-one]	20.8 ± 3.60 s		
C/C=C1\C2C=C(C)CC1(/N=C\C=C\c1ccc(/C=C/C=N/C34CC(C)=CC(Cc5[nH]c(=O)ccc53)/C4=C\C)cc1)c1ccc(=O)[nH]c1C2 [Example 28]	23.4 ± 3.88 s	12.6 ± 2.73 s	
C/C=C1\[C@H]2C=C(C)C[C@]1(N=CC=Cc1ccncc1)c1ccc(=O)[nH]c1C2 [Example 20, (5R,9R,11E)-5-(3-(pyridin-4-yl)prop-2-en-1-ylideneamino)-11-ethylidene-5,6,9,10-tetrahydro-7-methyl-5,9-methanocycloocta[b]pyridin-2(1H)-one]	25.0 ± 5.18 s	12.6 ± 2.42 s	
C/C=C1\[C@H]2C=C(C)C[C@]1(/N=C/C=C/c1cccc(Cl)c1)c1ccc(=O)[nH]c1C2 [Example 15, (5R,9R,11E)-5-(3-(3-chlorophenyl)prop-2-en-1-ylideneamino)-11-ethylidene-5,6,9,10-tetrahydro-7-methyl-5,9-methanocycloocta[b]pyridin-2(1H)-one]	28.8 ± 3.92 s	13.0 ± 3.63 s	
C/C=C1\[C@H]2C=C(C)C[C@]1(/N=C/C=C/c1ccc(C)cc1)c1ccc(=O)[nH]c1C2 [Example 6, (5R,9R,11E)-5-(3-(4-methylphenyl)prop-2-en-1-ylideneamino)-11-ethylidene-5,6,9,10-tetrahydro-7-methyl-5,9-methanocycloocta[b]pyridin-2(1H)-one]			pain-threshold after administration (0.76 mg/kg intragastric, 30 min): 24.8 ± 8.77 s; pain-threshold after administration (0.76 mg/kg intragastric, 60 min): 31.9 ± 7.76 s; pain-threshold after administration (0.76 mg/kg intragastric, 120 min): 22.6 ± 8.37 s; pain-threshold after administration (0.76 mg/kg intragastric, 180 min): 25.9 ± 11.50 s; pain-threshold after administration (0.76 mg/kg intragastric, 240 min): 24.5 ± 10.55 s; pain-threshold before administration (group dosed 0.76 mg/kg intragastric): 11.6 ± 4.14 s
C/C=C1\[C@H]2C=C(C)C[C@]1(/N=C/C=C/c1cccc(C)c1)c1ccc(=O)[nH]c1C2 [Example 4, (5R,9R,11E)-5-(3-(3-methylphenyl)prop-2-en-1-ylideneamino)-11-ethylidene-5,6,9,10-tetrahydro-7-methyl-5,9-methanocycloocta[b]pyridin-2(1H)-one]	27.0 ± 5.40 s	12.2 ± 3.31 s	
C/C=C1\[C@H]2C=C(C)C[C@]1(/N=C/C=C(\C)c1ccccc1)c1ccc(=O)[nH]c1C2 [Example 7, (5R,9R,11E)-5-(3-methyl-3-phenylprop-2-en-1-ylideneamino)-11-ethylidene-5,6,9,10-tetrahydro-7-methyl-5,9-methanocycloocta[b]pyridin-2(1H)-one]	24.6 ± 5.61 s	12.4 ± 2.33 s	
C/C=C1\C2C=C(C)CC1(/N=C/C=C/c1ccc3ccccc3c1)c1ccc(=O)[nH]c1C2 [Example 22, (5R,9R,11E)-5-(3-(naphthalen-2-yl)prop-2-en-1-ylideneamino)-11-ethylidene-5,6,9,10-1,7-dimethyl-5,9-methanocycloocta[b]pyridin-2(1H)-one]	23.6 ± 4.27 s	12.4 ± 4.13 s	
C/C=C1\[C@H]2C=C(C)C[C@]1(/N=C/C=C/c1ccccc1Cl)c1ccc(=O)[nH]c1C2 [Example 16, (5R,9R,11E)-5-(3-(2-chlorophenyl)prop-2-en-1-ylideneamino)-11-ethylidene-5,6,9,10-tetrahydro-7-methyl-5,9-methanocycloocta[b]pyridin-2(1H)-one]	27.4 ± 5.16 s	13.2 ± 3.76 s	
C/C=C1\C2C=C(C)CC1(/N=C\c1ccc(/C=C/C=N/C34CC(C)=CC(Cc5[nH]c(=O)ccc53)/C4=C\C)cc1)c1ccc(=O)[nH]c1C2 (stereo not shown) [Example 27]	21.2 ± 5.53 s	12.4 ± 3.14 s	
C/C=C1\[C@H]2C=C(C)C[C@]1(/N=C/C=C/C=C/c1ccccc1)c1ccc(=O)[nH]c1C2 [Example 8, (5R,9R,11E)-5-(5-phenylpenta-2,4-dien-1-ylideneamino)-11-ethylidene-5,6,9,10-tetrahydro-7-methyl-5,9-methanocycloocta[b]pyridin-2(1H)-one]	23.0 ± 3.52 s		
C/C=C1\[C@H]2C=C(C)C[C@]1(/N=C/C=C/c1ccco1)c1ccc(=O)[nH]c1C2 [Example 21, (5R,9R,11E)-5-(3-(furan-2-yl)prop-2-en-1-ylideneamino)-11-ethylidene-5,6,9,10-tetrahydro-7-methyl-5,9-methanocycloocta[b]pyridin-2(1H)-one]			pain threshold after administration (dose-effect, 0.42 mg/kg intragastric, 30 min): 16.3 ± 4.47 s; pain threshold after administration (dose-effect, 0.42 mg/kg intragastric, 60 min): 16.4 ± 4.03 s; pain threshold after administration (dose-effect, 0.42 mg/kg intragastric, 120 min): 13.2 ± 2.86 s; pain threshold after administration (dose-effect, 0.42 mg/kg intragastric, 180 min): 14.1 ± 1.66 s; pain threshold before administration (dose-effect, group dosed 0.42 mg/kg intragastric): 12.5 ± 2.79 s; pain-threshold after administration (0.71 mg/kg intragastric, 30 min): 17.2 ± 6.37 s; pain-threshold after administration (0.71 mg/kg intragastric, 60 min): 21.0 ± 8.77 s; pain-threshold after administration (0.71 mg/kg intragastric, 120 min): 16.9 ± 8.32 s; pain-threshold after administration (0.71 mg/kg intragastric, 180 min): 12.9 ± 3.87 s; pain-threshold after administration (0.84 mg/kg intragastric, 30 min): 23.3 ± 7.45 s; pain-threshold after administration (0.84 mg/kg intragastric, 60 min): 28.1 ± 10.15 s; pain-threshold after administration (0.84 mg/kg intragastric, 120 min): 14.9 ± 5.02 s; pain-threshold after administration (0.84 mg/kg intragastric, 180 min): 13.7 ± 2.98 s; pain-threshold before administration (group dosed 0.71 mg/kg intragastric): 11.9 ± 3.90 s; pain-threshold before administration (group dosed 0.84 mg/kg intragastric): 12.3 ± 3.86 s
C/C=C1\[C@H]2C=C(C)C[C@]1(/N=C/C=C/c1ccccc1Br)c1ccc(=O)[nH]c1C2 [Example 12, (5R,9R,11E)-5-(3-(2-bromophenyl)prop-2-en-1-ylideneamino)-11-ethylidene-5,6,9,10-tetrahydro-7-methyl-5,9-methanocycloocta[b]pyridin-2(1H)-one]	19.6 ± 4.03 s	12.4 ± 2.58 s	
C/C=C1\[C@H]2C=C(C)C[C@]1(/N=C/C=C/c1ccc(Br)cc1)c1ccc(=O)[nH]c1C2 [Example 13, (5R,9R,11E)-5-(3-(4-bromophenyl)prop-2-en-1-ylideneamino)-11-ethylidene-5,6,9,10-tetrahydro-7-methyl-5,9-methanocycloocta[b]pyridin-2(1H)-one]	22.0 ± 4.86 s		

Source: US8053577B2, “Derivatives of 5,9-methanocycloocta[b]pyridin-2-(1H)-one, their preparation and use as analgesics” (priority 2006, dated 2011)
